Among the data in ChEMBL document CHEMBL4043117, “Potential peptidic proteasome inhibitors by incorporation of an electrophilic trap based on amino acid derived α-substituted sulfonyl fluorides” (Bioorg Med Chem, 2017) are half-life and inhibition values, retold here.

Calls of active or inactive are those of the source. The calls are words filed in the database; no cut-off is given here.

Data set [1] can be described thus: Stability in PBS buffer at pH 7.4 assessed as half life for compound hydrolysis by HPLC method. The data set is classed as physicochemical.
The species named for data set [2] is Homo sapiens. The data set is described as follows: Inhibition of human erythrocyte 20S proteasome at 0.002 to 400 uM using Suc-LLVY-AMC substrate incubated for 1 hr by fluorescence assay.
Data set [3] is described as follows: Stability in PBS buffer at pH 6.5 assessed as half life for compound hydrolysis by HPLC method. The data set is classed as physicochemical.
The species named for data set [4] is Homo sapiens. The data set is described as follows: Inhibition of human erythrocyte 20S proteasome at 0.002 to 400 uM using compounds dissolved in 20% v/v DMSO in presence of Suc-LLVY-AMC substrate incubated for 1 hr by fluorescence assay.
Data set [5] is described as follows: Stability in PBS buffer at pH 8 assessed as half life for compound hydrolysis by HPLC method. It counts as physicochemical.

The term half-life denotes how long it takes for the measured level to halve. As for `CC(C)C[C@@H](CNC(=O)[C@H](CC(C)C)NC(=O)[C@H](CC(C)C)NC(=O)OCc1ccccc1)S(=O)(=O)F`, the half-life in data set [1], in data set [3] and in data set [5] was 5 to 7 h in each case. For the same compound, the inhibition entry in data set [2] and in data set [4] was “inactive” each time.

As to `CC(C)C[C@@H](CNC(=O)[C@H](CC(C)C)NC(=O)[C@H](CC(C)C)NC(=O)[C@H](CC(C)C)NC(=O)OCc1ccccc1)S(=O)(=O)F`, the half-life in data set [1], in data set [3] and in data set [5] was 5 to 7 h throughout. In addition, the inhibition entry in data set [2] and in data set [4] was “inactive” throughout.

For `CC(C)C[C@H](NC(=O)[C@H](CCc1ccccc1)NC(=O)CN1CCOCC1)C(=O)N[C@@H](Cc1ccccc1)C(=O)NC[C@H](Cc1ccccc1)S(=O)(=O)F`, the inhibition entry in data set [2] and in data set [4] was “inactive” in each case.

On to `CC(C)C[C@H](NC(=O)OCc1ccccc1)C(=O)N[C@@H](CC(C)C)C(=O)NC[C@H](Cc1ccccc1)S(=O)(=O)F`, for which the inhibition result in data set [2] and in data set [4] was “inactive” each time.

Turning to `CC(C)C[C@@H](CNC(=O)[C@H](Cc1ccccc1)NC(=O)[C@H](CC(C)C)NC(=O)[C@H](CCc1ccccc1)NC(=O)CN1CCOCC1)S(=O)(=O)F`, the inhibition entry in data set [2] and in data set [4] was “inactive” in each case.

As to `CC(C)C[C@@H](CS(=O)(=O)F)NC(=O)[C@H](CC(C)C)NC(=O)[C@H](CC(C)C)NC(=O)[C@H](CC(C)C)NC(=O)OCc1ccccc1`, the half-life in data set [1], in data set [3] and in data set [5] was 10 to 12 h each time. For the same compound, the inhibition entry in data set [2] is “Active”.

For `CC(C)C[C@@H](CS(=O)(=O)F)NC(=O)[C@H](CC(C)C)NC(=O)[C@H](CC(C)C)NC(=O)OCc1ccccc1`, the half-life in data set [1], in data set [3] and in data set [5] was 10 to 12 h each time. For the same compound, the inhibition entry in data set [2] was “Active”.

For `CC(C)C[C@H](NC(=O)OCc1ccccc1)C(=O)N[C@@H](CC(C)C)C(=O)N[C@@H](CC(C)C)C(=O)NC[C@H](Cc1ccccc1)S(=O)(=O)F`, the inhibition result in data set [2] and in data set [4] was “inactive” each time.
